Values joined by “and” are separate entries in the source; they are usually repeats but may differ in a detail not shown here. Identical values can stand only once.
Legend:
Format in all cases: cell-based, rat
[1] = tested on: integrin αIIbβ3 inside-out signaling (fibrinogen binding) in washed platelets; experiment: ADP-stimulated fibrinogen binding (flow cytometry); conditions: ADP 10 μM; for Fibrinogen binding (%): single replicates; for fibrinogen binding: mean ± SD, n = 3, 55.67 ± 9.62% with ADP alone
Method: Flow cytometric assays were performed as described previously ([Wang et al., 2019]). ADP-stimulated P-selectin exposure and fibrinogen binding were determined in washed platelets. […] The platelets were immediately incubated with PE-labeled CD62P or FITC-labeled fibrinogen in the dark at room temperature for 15 min. The cells were finally fixed with 1% (v/v) paraformaldehyde prior to analysis using an Accuri C6 flow cytometer (BD Biosciences, United States).

[2] = tested on: washed platelets on fibrinogen-coated coverslips; experiment: Platelet spreading on fibrinogen; conditions: for surface coverage, platelet spreading on fibrinogen: mean ± SD, n = 3, vehicle 30.37 ± 3.31%; for Area (%) of platelets spread on fibrinogen: single replicates
Method: Washed platelets were incubated with vehicle or various concentrations of naringenin at 37°C for 10 min in the presence of 2 mM CaCl2 and allowed to spread on fibrinogen-coated coverslips for 45 min at 37°C ([Liu et al., 2016]). After washed three times with phosphate-buffered saline (PBS), adherent platelets were fixed with 4% paraformaldehyde, permeabilized with 0.1% Triton X-100 and stained with TRITC-conjugated phalloidin (1 μg/ml) in the dark at room temperature for 60 min. Adherent platelets were observed under an inverted fluorescence microscope (Nikon TE-2000S) and processed using Image J software.

[3] = tested on: VASP Ser157 phosphorylation; experiment: Immunoblotting of phospho-VASP (Ser157) in ADP-stimulated washed platelets; conditions: for p-VASP(Ser157) / GAPDH (Fold to ADP only) / p-VASP(Ser157) / GAPDH (raw data): ADP-stimulated, Figure 7B
Method: For in vitro platelet aggregation, aliquots of washed platelets were preincubated with vehicle or various concentrations of naringenin for 5 min and stimulated with ADP (10 μmol/L) under stirring at 37°C for 5 min. For ex vivo platelet aggregation, PRP was incubated at 37°C for 5 min and stimulated with ADP (5 μmol/L) under stirring at 37 °C. The platelet aggregation was terminated by adding ethylenediaminetetraacetic acid (EDTA; 10 mM). Total protein was prepared using RIPA lysis buffer and protein content was determined by bicinchoninic acid (BCA) protein assay kit. Equal amounts of platelet proteins (30 μg) were separated on 10% SDS polyacrylamide gel electrophoresis (SDS-PAGE) and then transferred to poly vinylidene difluoride (PVDF) membranes and subjected to western blot. Blots were blocked with TBS-Tween 20 containing 5% BSA and probed with primary antibodies diluted in blocking solution at 4°C overnight followed by incubation with the corresponding HRP secondary antibodies. The protein bands were visualized using enhanced chemiluminescence (ECL).
VASP is a substrate for cAMP- and cGMP- dependent protein kinases, which mediate cAMP- and cGMP-dependent inhibitory signaling in platelets, respectively. Increased cAMP levels followed by the activation of cAMP-dependent protein kinase A (PKA) phosphorylates VASP at position Ser157, whereas the elevation of cGMP leads to VASP phosphorylation at position Ser239 by cGMP-dependent protein kinase G (PKG) ([Aszódi et al., 1999]; [Li et al., 2003a]). To further examine whether naringenin modulates cAMP- or cGMP-mediated inhibitory signaling, the phosphorylation of VASP (Ser157 and Ser239) in washed platelets on stimulation with ADP were measured in the absence or presence of naringenin (100, 200, 400, and 800 μM). […] To further confirm the antiplatelet effects of naringenin through PKA-dependent signaling, the effects of naringenin on platelet aggregation were measured in the presence of PKG inhibitor (Rp-8-Br-PET-cGMPS) and PKA inhibitor (H89).
FIGURE 7 Naringenin promotes VASP phosphorylation. The effects of naringenin on phosphorylation of VASP (at positions Ser 157 and Ser239) were measured in washed platelets upon stimulation with ADP (10 μmol/L) by western blotting (A). The blots shown are representative of three separate experiments. The phosphorylation levels were quantified by ImageJ 1.47v software. The level of phosphorylation obtained with vehicle control (0 μM) was taken as 1 (B,C). R represents the phosphorylation level in resting platelets. Data are expressed as means ± SD (n = 3). *p < 0.05, ***p < 0.001 compared with the vehicle control group. VASP phosphorylation at Ser239 was also analyzed in washed platelets incubated with 5 μmol/L PKA (H89), 30 μmol/L PKG (Rp-8-Br-PET-cGMPS), or 5 μmol/L PKC (GF109203X) inhibitors before treatment with naringenin (D). Washed platelets were incubated with vehicle or naringenin (200 μmol/L) at 37°C in the presence or absence of 5 μmol/L PKA (H89) or 30 μmol/L PKG (Rp-8-Br-PET-cGMPS) inhibitors. After treatment, platelets were stimulated with ADP (10 μmol/L) to trigger aggregation (E). Data are expressed as means ± SD (n = 6). ***p < 0.001 compared with the ADP-treated group, ^# p < 0.05, ^### p < 0.001 compared with naringenin alone or H89 alone.

Structure (SMILES): O=C1C[C@@H](c2ccc(O)cc2)Oc2cc(O)cc(O)c21 [Naringenin]
- Fibrinogen binding (%) ([1]; 200 μM): 42.78% and 35.40% and 54.20%
- fibrinogen binding ([1]; 400 μM): 31.74 ± 5.85%
- Fibrinogen binding (%) ([1]; 400 μM): 31.71% and 25.90% and 37.60%
- fibrinogen binding ([1]; 800 μM): 20.48 ± 4.63%
- Fibrinogen binding (%) ([1]; 800 μM): 21.04% and 15.60% and 24.80%
- surface coverage, platelet spreading on fibrinogen ([2]; 100 μM): 20.96 ± 5.08%
- Area (%) of platelets spread on fibrinogen ([2]; 100 μM): 25.76% and 15.64% and 21.47%
- surface coverage, platelet spreading on fibrinogen ([2]; 200 μM): 15.29 ± 1.87%
- Area (%) of platelets spread on fibrinogen ([2]; 200 μM): 16.88% and 15.75% and 13.23%
- surface coverage, platelet spreading on fibrinogen ([2]; 400 μM): 10.56 ± 0.79%
- Area (%) of platelets spread on fibrinogen ([2]; 400 μM): 9.69% and 11.23% and 10.75%
- surface coverage, platelet spreading on fibrinogen ([2]; 800 μM): 6.98 ± 2.74%
- Area (%) of platelets spread on fibrinogen ([2]; 800 μM): 4.62% and 6.33% and 9.98%
- phosphorylation of VASP at Ser157 ([3]; ADP-stimulated washed platelets, 100, 200, 400, and 800 μM): did not significantly alter
- p-VASP(Ser157) / GAPDH (Fold to ADP only) ([3]; naringenin 200 μM): 1.6152 and 1.1716 and 1.5055
- p-VASP(Ser157) / GAPDH (raw data) ([3]; naringenin 200 μM): 0.7758 and 0.5628 and 0.7232
- p-VASP(Ser157) / GAPDH (Fold to ADP only) ([3]; naringenin 400 μM): 1.6752 and 1.3720 and 1.0597
- p-VASP(Ser157) / GAPDH (raw data) ([3]; naringenin 400 μM): 0.8047 and 0.6590 and 0.5090
- p-VASP(Ser157) / GAPDH (Fold to ADP only) ([3]; naringenin 800 μM): 1.6695 and 1.5145 and 1.3641
- p-VASP(Ser157) / GAPDH (raw data) ([3]; naringenin 800 μM): 0.8019 and 0.7275 and 0.6552

Source: publication PMC8406801, “Naringenin Inhibits Platelet Activation and Arterial Thrombosis Through Inhibition of Phosphoinositide 3-Kinase and Cyclic Nucleotide Signaling” (Frontiers in Pharmacology, 2021)
